Patent US12077610B2, “Peptides and other agents for treating pain and increasing pain sensitivity” (The Research Foundation for The State University of New York, priority 2017, dated 2024)
Non-standard residues stand in square brackets, D forms with d. No end group written: not given here. *: point of attachment. pT = C[C@@H](OP(=O)(O)O)[C@H](N)C(=O)O; Myristoyl = CCCCCCCCCCCCCC(=O)*

Tests used:
DRG neurons = assay: Current-clamp action potential firing in cultured DRG neurons; type: cell-based, rat
Experimental: (§1) Primary DRG neuronal cultures—Timed-pregnant Sprague-Dawley rats (Harlan, Indianapolis, Ind.) were used for culturing neurons. On the day of the dissection, rats were euthanized by CO2 asphyxiation and E15 embryos were extracted. DRG neurons were dissected from the embryos and enzymatically digested with Trypsin (2.5 mg/ml) at 37° C. for 45 min, followed by dissociation and plating. DRG neurons were plated onto poly-D-lysine (Sigma; 100 μg/ml) and laminin (Invitrogen; 3 μg/ml) coated coverslips. Neurons were maintained at 37° C. in a 7% CO2 humidified incubator in serum-free medium, comprised of the trophic factors N2 (Gemini Bio products; 1%), I-Glutamine (Invitrogen; 200 sg/ml), and Nerve Growth Factor (NGF) (Harlan; 100 ng/ml; essential for embryonic neuronal survival) in 50% DMEM and 50% F-12. The reliance of embryonic DRG neurons on NGF selects for the small-diameter population that is thought to underlie nociception and thermoception. Two successive days after DRG dissection, DRG neurons were cultured in C2 media containing the anti-mitotic agent cytosine β-d-arabinofuranoside hydrochloride (Sigma; 3 μM). This was followed by two days of recovery were neurons received regular serum free media before neurons were used for experiments. All subsequent experiments using embryonic cultures were performed on days 5-10 of neuronal culture.
Electrophysiology—All data was acquired using the Axopatch 200B amplifier (Molecular Devices,) and Multiclamp-700B (Molecular Devices, Sunnyvale, Calif.), digitized and filtered at 5 kHz. Data acquisition was monitored and controlled using pClamp 10 (Molecular Devices). Whole-cell patch-clamp recordings were performed on cultured DRG neurons, and CHO cells transiently transfected with WT or mutated Slack with Magi-1. Glass electrodes were pulled using a vertical pipette puller (Narishige International USA, Amityville, NY) and fire polished to be of 5-8 MΩ resistance. Pipettes were filled with solution containing (in mM) 124 K-gluconate, 2 MgCl2, 13.2 NaCl, 1 EGTA, 10 HEPES, 4 Mg-ATP, and 0.3 Na-GTP at pH 7.2 for neuronal recordings, and with 32.5 mM KCl, 97.5 mM potassium gluconate, 5 mM EGTA and 10 mM HEPES (pH 7.2) for CHO cell Slack and Slick recordings. […] In voltage-clamp mode, macroscopic currents were recorded at voltages ranging from −120 to +120. […] The cell capacitance for CHO cells ranged from 10-15 pF and for cultured DRG neurons 20-25 pF recorded under these conditions. […] Firing frequency of individual neurons was assessed by measurement of repetitive discharge upon injecting of a supra-threshold stimulus of 400 pA for 1000 ms. […] For TTX-resistant INa, DRG neurons were recorded in a bath solution containing 250 nM TTX. DRG neurons were recorded at voltages ranging from −60 to +60 mV. […]

Slack KNa channel = assay: Surface biotinylation of Slack channel in cultured DRG neurons; type: cell-based, rat; conditions: 24 hrs after PDZ peptide incubation, vs scrambled peptide B
Experimental: (§2) Western Blot Analysis—Total proteins were collected from transfected CHO cells, spinal cord and DRG. Tissue was homogenized in RIPA buffer supplemented in protease inhibitor cocktail (Sigma). Immunoblotting was performed as previously described. Briefly, proteins were separated on 4-15% Mini-PROTEAN TGX Precast Gel (Bio-Rad) and transferred to a 0.45 μm nitrocellulose membrane (BioRad). Membranes were probed overnight at 4° C. with antibodies against Slack anti-mouse (1:500; NeuroMab), rabbit anti-β-Actin (1:500; Millipore), rabbit anti-Magi-1 (1:100; Abcam), mouse anti-Magi-1 (1:100; Novus Biochemical), mouse anti-NaV1.8 (1:200; NeuroMab), mouse anti-NaV1.7 (1:200; NeuroMab), mouse anti-Flag (1:500; Sigma) in 5% milk prepared in 1×Tris-buffered saline tween (TBST). On the following day, the membrane was washed three times for five minutes in 1×TBST before being incubated for 1 hour at room temperature in Anti-mouse or Anti-rabbit horseradish peroxidase conjugate (1:5000; Promega) and 0.1% BSA prepared in 1×PBS. The membrane was again washed 3 times for 5 minutes before being developed and imaged. Bands were visualized with enhanced chemiluminescence (Thermo Scientific) and quantified with Image J Software (NIH). Each experiment was repeated at least three times.
(§3) Surface Protein Biotinylation—Plasma membrane protein expression was detected using a protein biotinylation assay. […]

NaV1.8 = assay: Surface biotinylation / Western blot of NaV1.8 in cultured DRG neurons; type: cell-based, rat; conditions: 10 μM peptide, 24 hrs
Experimental: as §2
Surface Protein Biotinylation—Plasma membrane protein expression was detected using a protein biotinylation assay. Briefly, CHO cells or DRG neurons in six-well plates were used at 48 h after transient transfection of plasmid constructs or Magi-1 targeting siRNA respectively. For peptide incubation, neurons were incubated for 24 hrs. 160 μl of 10 mM Sulfo-NHS-SS-Biotin (Thermo Scientific) was added to each well and incubated at room temperature for 45 mins. The biotinylation reaction was terminated using 10 mM glycine (Quenching solution). Cells were harvested, washed in TBS and lysed on ice for 30 minutes in a lysis buffer/protease inhibitor cocktail. Lysates were collected and incubated with 500 uL of NeutrAvidin Agarose for 60 mins at room temperature with rotation. Following incubation, the column underwent centrifugation to collect the unbiotinylated protein. To elute the biotinylated proteins, sodium dodecyl sulfate (SDS) and dithiothreitol (DDT) were added to column membrane and incubated with rotation for 1 hour at room temperature. Biotinylated and unbiotinylated samples were probed for Slack or NaV1.8 and Actin protein by Western blot, as described above.

[1] = Formalin test of acute inflammatory pain; type: in vivo, mice; conditions: single i.pl. injection 100 μM, 20 μl, 24 hrs before 5% formalin; vs scrambled peptide
Excerpt: In vivo transfection with jetPEI®/Magi-1 shRNA plasmid DNA polyplexes—The spinal nerve injection protocol was adopted from and optimized for spinal nerve injection in mice. Three days after baseline thermal behavior was established, mice were anesthetized using isoflurane (induction: 4% and maintenance: 2%), and placed in a prone position. A 3-cm posterior longitudinal skin incision was made at the lumbar segment of the spine. The ipsilateral paraspinal muscles were carefully separated, using a pair of sterile toothpicks, from their attachments at the L4˜S1 levels of the vertebral column. 1.5 μl of PEI/shRNA plasmid DNA polyplexes at an N/P ratio of 6 were injected directly in the spinal nerve of the right hind paw slowly using a syringe connected to a 26-gauge needle (Hamilton 80030, Hamilton, Reno, NV). Magi-1 shRNAs and control shRNA were purchased from Santa Cruz Biotechnology (Santa Cruz, CA, USA) and were identical to the siRNA sequences described above. After injection, the needle was held at the spinal nerve for 1 min to prevent leakage. […]
Formalin test—Mice were habituated in the behavior room for 15 minutes, then 30 minutes in the formalin chamber before formalin injection. […] The total time spent lifting, the total number of licks, and the number of flinches were recorded in 5 minute intervals for 60 minutes. […]

INa in DRG neurons = assay: Whole-cell voltage-clamp recording of inward sodium current (INa); type: cell-based, rat; conditions: for INa (total / peak): 10 μM peptide, 24 hrs
Experimental: as §1, with “All subsequent experiments using embryonic cultures were performed on days 5-10 of neuronal culture.” left out
Electrophysiology—All data was acquired using the Axopatch 200B amplifier (Molecular Devices,) and Multiclamp-700B (Molecular Devices, Sunnyvale, Calif.), digitized and filtered at 5 kHz. Data acquisition was monitored and controlled using pClamp 10 (Molecular Devices). […] In voltage-clamp mode, macroscopic currents were recorded at voltages ranging from −120 to +120. […] The cell capacitance for CHO cells ranged from 10-15 pF and for cultured DRG neurons 20-25 pF recorded under these conditions. […] Firing frequency of individual neurons was assessed by measurement of repetitive discharge upon injecting of a supra-threshold stimulus of 400 pA for 1000 ms. […] For TTX-resistant INa, DRG neurons were recorded in a bath solution containing 250 nM TTX. DRG neurons were recorded at voltages ranging from −60 to +60 mV. […]

NaV1.7 = assay: Surface biotinylation of NaV1.7 in cultured DRG neurons; type: cell-based, rat; conditions: peptide treatment 24 hrs
Experimental: as §2, §3

Row | Substance | neurons exhibiting repetitive firing (DRG neurons; PDZ peptide treated, suprathreshold stimulation 400 pA, 1000 ms) | Slack surface expression (Slack KNa channel) | neurons firing one action potential followed by firing accommodation (DRG neurons; suprathreshold stimulation 400 pA, 1000 ms) | neurons with AP firing almost completely abolished (DRG neurons; 10 μM peptide, 24 hrs) | NaV1.8 channels at the plasma membrane (surface expression) (NaV1.8) | total NaV1.8 protein (NaV1.8) | Phase II acute inflammatory pain (formalin) [1] | INa (total / peak) (INa in DRG neurons) | decrease in INa density (INa in DRG neurons; PY peptide incubation, 6 hours) | surface (biotinylated) NaV1.7 membrane expression (NaV1.7) | neurons with repetitive AP firing (DRG neurons; 10 μM peptide, 24 hrs, suprathreshold stimulation 400 pA, 1000 ms)
1 | NPETRDETQL [PDZ peptide] | 11/21 | decreased | – | – | – | – | – | – | – | – | –
2 | myristoyl-QPNTRLDETE (Myristoyl-QPNTRLDETE) [Scrambled peptide B, reference compound] | – | – | 23/23 | – | – | – | – | – | – | – | –
3 | myristoyl-SATSFPPSYDSVTRG (Myristoyl-SATSFPPSYDSVTRG) [PY peptide] | – | – | – | 10 of 11 | substantial decrease | substantial decrease | significantly reduced | almost complete loss | 50% | unaltered | –
4 | myristoyl-SATSFPPSYDSV[pT]RG (Myristoyl-SATSFPPSYDSV[pT]RG) [phospho-PY peptide] | – | – | – | – | significant increase | a statistically significant increase in input levels of NaV1.8 protein over 24 hours was not observed | increase | strongly increased | – | unaltered | 7 of 12
